Results from US20250381254A1, “Augmented Acid Alpha-Glucosidase For The Treatment Of Pompe Disease” (Amicus Therapeutics, Inc., priority 2015, published 2025).
Like-named read-outs stand apart in the source and are kept apart here.

Key:
[1] = target: ATB200 (Homo sapiens, UniProt P10253, H199R/R223H/V780I); assay: Unfolding of ATB200 protein vs. temperature with and without miglustat (FIG. 1); type: physicochemical; conditions: various pH
From the text: Without being bound by theory, it is believed that miglustat acts as a pharmacological chaperone for the recombinant human acid α-glucosidase ATB200 and binds to its active site. […] However, the binding of miglustat to the active site of ATB200 also can result in inhibition of the enzymatic activity of ATB200 by preventing the natural substrate, glycogen, from accessing the active site.

[2] = Model-derived miglustat/ATB200 steady state exposure (AUC) ratio; parameters: species or system mouse; conditions: 10 mg/kg miglustat co-administered with 20 mg/kg ATB200
From the text: Pharmacokinetic models (Example 8) are used to predict exposure to acid α-glucosidase and miglustat, time-matched to the values for tissue lysosomal glycogen levels in Table 5.

[3] = in vivo; conditions: both, Cambodian origin, cynomolgus monkey, in vivo
Experimental: Animals were acclimated to the study room for 18 (females) to 19 (males) days. On the final day of acclimation, animals weighed between 2.243 kg and 5.413 kg and were 2 to 3 years of age.
ATB200 is formulated in 25 mM sodium phosphate buffer, pH 6 containing 2.92 mg/mL sodium chloride, 20 mg/mL mannitol, and 0.5 mg/mL polysorbate 80 (formulation buffer). Test article (ATB200 or miglustat) and control article/vehicle (formulation buffer) were administered once every other week for 13 weeks, starting on Day 1 and ending on Day 85. ATB200 and the control article/vehicle were administered by 2 hour (±10 minute) intravenous (IV) infusion at 0 mg/kg (Group 1, control article), 50 mg/kg (Group 2), or 100 mg/kg (Groups 3 and 5). Miglustat was administered nasogastrically in sterile water for injection, USP, at 25 mg/kg (Group 2) or 175 mg/kg (Groups 3 and 4), 30 minutes (±2 minutes) prior to the start of the infusion for ATB200, when given in combination. The dosing volume across all groups was 10 mL/kg.
Parameters assessed during the in-life phase of the study included body weights, food consumption, clinical observations, detailed clinical observations, physical examinations, electrocardiography, ophthalmic assessments, clinical pathology (hematology, coagulation, serum chemistry), anti-drug antibody (ADA) assessment, neutralizing ADA assessment, urinalysis, and plasma toxicokinetics (TK) for miglustat and ATB200 activity and total protein. Terminal necropsy of animals was performed on Day 99 (14 days after the last dose administration). At necropsy, gross observations and organ weights were recorded, and tissues were collected for microscopic examination.

[4] = Miglustat toxicokinetics; type: in vivo, cynomolgus monkey; conditions: for AUC(0-t) / Cmax / half-life / Tmax / Vd/F: cynomolgus monkey, plasma; for Vd/F: read-out: Vz/F
Experimental: Analysis of miglustat concentration was carried out using a LC-MS/MS method analogous to that described for analysis of duvoglustat concentration by Richie Khanna, Allan C. Powe Jr., Yi Lun, Rebecca Soska, Jessie Feng, Rohini Dhulipala, Michelle Frascella, Anadina Garcia, Lee J. Pellegrino, Su Xu, Nastry Brignol, Matthew J. Toth, Hung V. Do, David J. Lockhart, Brandon A. Wustman, Kenneth J. Valenzano. […] Miglustat TK parameters were estimated by the log-linear trapezoidal rule.

[5] = Clinical study: plasma miglustat PK; type: in vivo, human; conditions: for AUC0-∞/BW (geometric mean) / CL/F (arithmetic mean) / Cmax/BW (geometric mean) / βt1/2 (arithmetic mean) / AUC(0-t) / AUC(0-inf) / Cmax / Vd/F / Tmax: with 20 mg/kg ATB200; for AUC(0-t) / AUC(0-inf) / Cmax / Vd/F / Tmax: human, plasma, 20 mg/kg; for AUC(0-t): read-out: AUC0-t (geometric mean); for AUC(0-inf): read-out: AUC0-∞ (geometric mean); for Cmax: read-out: Cmax (geometric mean); for Vd/F: read-out: Vz/F (arithmetic mean); for Tmax: read-out: tmax (median)
From the text: The study will be conducted in 2 stages.
• Safety: review of AEs, including SAEs and IARs; review of concomitant medications and nondrug therapies; vital signs (HR, RR, BP, and temperature); weight; PE; ECG; clinical safety laboratory assessments (serum chemistry, hematology, and urinalysis); and urine pregnancy test • PD: urinary Hex4 and serum CPK • Immunological: blood samples for anti-recombinant acid α-glucosidase antibody titers (anti-recombinant acid α-glucosidase total and neutralizing antibody titers, and antibody cross-reactivity with alglucosidase alfa) and blood samples for measurement of pro-inflammatory cytokines and other biomarkers of immune system activation. If needed, IgE measurements will also be performed. • Serial 24-hour PK: During Period 4 (Visit 6, Day 43 and Visit 8, Day 71) and Period 5 (Visit 9, Day 85 and Visit 11, Day 113), blood sampling for plasma acid α-glucosidase activity levels, total acid α-glucosidase protein concentrations, and miglustat concentrations will be taken for all subjects.
In Tables 12-15 and FIGS. 24-26, the single dose (SD) measurements were taken after a single administration of miglustat and ATB200, and the multiple dose (MD) measurements were taken after the third biweekly administration of miglustat and ATB200.

[6] = Previous studies in non-human primates (exposure); conditions: in vivo, po, 175 mg/kg
[7] = Cambodian origin, po, 175 mg/kg, Day 85, 100 mg/kg ATB200 + 175 mg/kg miglustat
[8] = Cambodian origin, po, 175 mg/kg, Day 85, 175 mg/kg miglustat monotherapy
[9] = po, 25 mg/kg, Day 1, 50 mg/kg ATB200 + 25 mg/kg miglustat
[10] = po, 25 mg/kg, Day 85, 50 mg/kg ATB200 + 25 mg/kg miglustat
[11] = po, 175 mg/kg, Day 1, 100 mg/kg ATB200 + 175 mg/kg miglustat
[12] = po, 175 mg/kg, Day 1, 175 mg/kg miglustat monotherapy
[13] = po, 175 mg/kg, Day 85, 100 mg/kg ATB200 + 175 mg/kg miglustat
[14] = po, 175 mg/kg, Day 85, 175 mg/kg miglustat monotherapy
[15] = 130 mg miglustat, multiple dose
[16] = oral, 130 mg miglustat, multiple dose
[17] = oral, 130 mg miglustat, single dose
[18] = oral, 260 mg miglustat, single dose

CCCCN1C[C@H](O)[C@@H](O)[C@H](O)[C@H]1CO [miglustat, (2R,3R,4R,5S)-1-butyl-2-(hydroxymethyl)piperidine-3,4,5-triol]
percentage of unfolded ATB200 protein [1]: decrease the percentage of unfolded ATB200 protein | miglustat/ATB200 AUC ratio [2]: 0.01159 | NOAEL at 13 weeks [3]: 175 mg/kg | AUC(0-t) [4, 7]: 216000 ng·h/mL | Cmax [4, 7]: 22000 ng/mL | AUC(0-t) [4, 8]: 204000 ng·h/mL | Cmax [4, 8]: 14700 ng/mL | CLT/F ([4]; Day 1, 50 mg/kg ATB200 + 25 mg/kg miglustat): 1.92 L/h | CLT/F ([4]; Day 1, 100 mg/kg ATB200 + 175 mg/kg miglustat): 3.22 L/h | CLT/F ([4]; Day 1, 175 mg/kg miglustat monotherapy): 3.67 L/h | CLT/F ([4]; Day 85, 50 mg/kg ATB200 + 25 mg/kg miglustat): 1.99 L/h | CLT/F ([4]; Day 85, 100 mg/kg ATB200 + 175 mg/kg miglustat): 3.62 L/h | CLT/F ([4]; Day 85, 175 mg/kg miglustat monotherapy): 3.49 L/h | half-life ([4]; both sexes, oral, males and females combined, Days 1 and 85, across groups, read-out: mean t1/2): 6.66 to 8.23 h | Tmax ([4]; oral, postdose, across groups and days): 2 to 4 h | AUC(0-t) [4, 9]: 47300 ng·h/mL | Cmax [4, 9]: 7430 ng/mL | Tmax [4, 9]: 2.06 h | Vd/F [4, 9]: 20.5 L | half-life ([4]; po, 25 mg/kg, Day 1, 50 mg/kg ATB200 + 25 mg/kg miglustat, read-out: t1/2 (converted)): 7.44 h | AUC(0-t) [4, 10]: 49100 ng·h/mL | Cmax [4, 10]: 7510 ng/mL | Tmax [4, 10]: 2.88 h | Vd/F [4, 10]: 23.3 L | half-life ([4]; po, 25 mg/kg, Day 85, 50 mg/kg ATB200 + 25 mg/kg miglustat, read-out: t1/2 (converted)): 8.23 h | AUC(0-t) [4, 11]: 182000 ng·h/mL | Cmax [4, 11]: 20400 ng/mL | Tmax [4, 11]: 2.69 h | Vd/F [4, 11]: 32.3 L | half-life ([4]; po, 175 mg/kg, Day 1, 100 mg/kg ATB200 + 175 mg/kg miglustat, read-out: t1/2 (converted)): 6.85 h | AUC(0-t) [4, 12]: 173000 ng·h/mL | Cmax [4, 12]: 16400 ng/mL | Vd/F [4, 12]: 35.9 L | half-life ([4]; po, 175 mg/kg, Day 1, 175 mg/kg miglustat monotherapy, read-out: t1/2 (converted)): 6.86 h | Tmax [4, 13]: 3.56 h | Vd/F [4, 13]: 39.1 L | half-life ([4]; po, 175 mg/kg, Day 85, 100 mg/kg ATB200 + 175 mg/kg miglustat, read-out: t1/2 (converted)): 7.86 h | Tmax [4, 14]: 4.13 h | Vd/F [4, 14]: 33.8 L | half-life ([4]; po, 175 mg/kg, Day 85, 175 mg/kg miglustat monotherapy, read-out: t1/2 (converted)): 6.66 h | dose proportionality of kinetics ([5]; 130 mg and 260 mg): dose-proportional kinetics | AUC0-∞/BW (geometric mean) [5, 15]: 142 ng·h/mL/kg | CL/F (arithmetic mean) [5, 15]: 10.8 L/h | Cmax/BW (geometric mean) [5, 15]: 16.3 ng/mL/kg | βt1/2 (arithmetic mean) [5, 15]: 5.6 h | AUC0-∞/BW (geometric mean) ([5]; 130 mg miglustat, single dose): 154 ng·h/mL/kg | CL/F (arithmetic mean) ([5]; 130 mg miglustat, single dose): 9.93 L/h | Cmax/BW (geometric mean) ([5]; 130 mg miglustat, single dose): 19.2 ng/mL/kg | βt1/2 (arithmetic mean) ([5]; 130 mg miglustat, single dose): 4.5 h | AUC0-∞/BW (geometric mean) ([5]; 260 mg miglustat, single dose): 325 ng·h/mL/kg | CL/F (arithmetic mean) ([5]; 260 mg miglustat, single dose): 9.51 L/h | Cmax/BW (geometric mean) ([5]; 260 mg miglustat, single dose): 41.5 ng/mL/kg | βt1/2 (arithmetic mean) ([5]; 260 mg miglustat, single dose): 5.5 h | AUC(0-t) [5, 16]: 11500 ng·h/mL | AUC(0-inf) [5, 16]: 12200 ng·h/mL | Cmax [5, 16]: 1390 ng/mL | Vd/F [5, 16]: 88.1 L | Tmax [5, 16]: 3 h | AUC(0-t) [5, 17]: 12600 ng·h/mL | AUC(0-inf) [5, 17]: 13200 ng·h/mL | Cmax [5, 17]: 1650 ng/mL | Vd/F [5, 17]: 65.4 L | Tmax [5, 17]: 2.75 h | AUC(0-t) [5, 18]: 26600 ng·h/mL | AUC(0-inf) [5, 18]: 28000 ng·h/mL | Cmax [5, 18]: 3550 ng/mL | Vd/F [5, 18]: 79.2 L | Tmax [5, 18]: 2.75 h | time of peak plasma concentrations into the ATB200 infusion ([5]; oral, 1 hour prior to ATB200 infusion): 2 h | AUC [6]: 196000 ng·h/mL
